The values that follow come from the NIST ThermoML archive (doi:10.1021/acs.jced.8b01165).

For data set [1] the following is noted: Crystal; DSC.
Data set [2] is described as follows: Molar enthalpy of transition or fusion. As to conditions: Crystal; DSC.

± gives the expanded uncertainty stated by the source.

Turning to `C=C(C)C1Cc2c(ccc3c2OC2COc4cc(OC)c(OC)cc4C2C3=O)O1` (configuration not stated), the Triple point temperature in data set [1] is 435.89 ± 1 K. Also, the “Molar enthalpy of transition or fusion” value in data set [2] came to 6.8 ± 0.203 kcal/mol.
